Measurements: patent publication US8835134B2, “Cycloastragenol monoglucoside, preparation, pharmaceutical composition and application thereof” (Tianjin Institute of Pharmaceutical Research, priority 2007, dated 2014)

System: anesthetized open-chest dogs
Experiment: Hemodynamics of anesthetized open-chest dogs, intravenous infusion
Format: in vivo, mongrel dogs
Details: 0.15 mg/kg iv
Method: The animals were anesthetized by intravenous injection of 30 mg/kg sodium pentobarbital, tracheally intubated, and mechanically ventilated with positive air pressure. Left thoracotomy was performed through the fourth intercostal space and the heart was suspended in a pericardial cradle, the aortic root was isolated and a probe of blood flow meter (12 or 14 mm in diameter) was fixed to measure the aortic blood flow as a representation of cardiac output (CO), the circumflex branch of left coronary artery was isolated and a probe of blood flow meter (2 or 2.5 mm in diameter) was fixed to measure the coronary blood flow (CBF). A polyethylene catheter filled with heparin physiological saline was inserted through cardiac apex into the left ventricle to measure the left ventricular pressure (LVP) and left ventricular end-diastolic pressure (LVEDP), Peak positive and peak negative first derivatives of the LVP (+ LVdp/dt and − LVdp/dt) were calculated with the Acknowledge software. The systolic blood pressure (SBP), diastolic blood pressure (DBP) and mean arterial pressure (MAP) were measured by polyethylene catheter via the femoral artery, ECG □ was measured by a AC-601G ECG amplifier. The above-mentioned analog signal was input into a data acquisition workstation (MP100, BIOPAC Systems, USA) to a computer running Acknowledge (version 3.7.1).
After surgery, various indexes before administration were recorded until the indexes were stable, and then intravenous infusion administration was conducted. Thirty dogs were divided into five groups (six dogs in each group), the experiment groups were given 0.15, 0.3, 0.6 mg/kg of ASP-[…] respectively, the normal control group was given 1 ml/kg of solvent, and the positive control group was given 0.3 mg/kg of astragaloside IV. The delivery volumes were 15 ml for each dog was and the delivery velocity was 1 ml/min. The indexes were recorded at 5, 10, 15, 20, 30, 45, 60, 90 and 120 mins after drug administration. At the end of experiment, the hearts were excised and weighted. The myocardial blood flow for per hectogram (CF), coronary resistance (CR), cardiac index (CI), left ventricular work (LVW) and total peripheral resistance (TPR) were calculated according to the following formulae: CF=CBF×[…]/heart weight CR=MAP/CF CI=CO/0.11×(body weight)^2/3 LVW=CO×(MAP−5)×1.052×0.0136 TPR=MAP×79.92/CO
Data are expressed as mean±SD ( x±s), the paired t-test was used to compare the significance between before and after administration, the unpaired t-test was adopted for comparison between groups.

CC(C)(O)[C@@H]1CC[C@](C)([C@H]2[C@@H](O)C[C@@]3(C)C4C[C@H](OC5OC(CO)C(O)C(O)C5O)C5C(C)(C)[C@@H](O)CC[C@@]56C[C@@]46CC[C@]23C)O1 (stereo partly drawn) [CMG, Cycloastragenol-6-O-β-D-glucoside]
LVW (20 min after administration): 1.04 ± 0.23 kg · m | LVW change vs before administration (20 min after administration): (−0.08 ± 0.21) kg · m | TPR (20 min after administration): 4882 ± 1971 dyn · s/cm^5 | TPR change vs before administration (20 min after administration): (−268 ± 672) dyn · s/cm^5 | dp/dt (20 min after administration): 1144 ± 452 mmHg/s | dp/dt change vs before administration (20 min after administration): (−6 ± 113) mmHg/s | −dp/dt (20 min after administration): −830 ± 277 mmHg/s | −dp/dt change vs before administration (20 min after administration): (58 ± 77) mmHg/s | CF (30 min after administration): 52.5 ± 16.9 ml/min/100 g | CF change vs before administration (30 min after administration): (−5.2 ± 7.9) ml/min/100 g | CI (30 min after administration): 1.98 ± 0.44 L/min/m^2 | CI change vs before administration (30 min after administration): (−0.10 ± 0.27) L/min/m^2 | CO (30 min after administration): 1.14 ± 0.24 L/min | CO change vs before administration (30 min after administration): (−0.07 ± 0.16) L/min | CR (30 min after administration): 1.38 ± 0.38 mmHg/ml/min/100 g | CR change vs before administration (30 min after administration): (0.02 ± 0.13) mmHg/ml/min/100 g | LVEDP (30 min after administration): 1.2 ± 2.4 mmHg | LVEDP change vs before administration (30 min after administration): (−0.58 ± 0.46) mmHg | LVP (30 min after administration): 100 ± 21 mmHg | LVP change vs before administration (30 min after administration): (−5.0 ± 7.3) mmHg | LVW (30 min after administration): 1.01 ± 0.26 kg · m | LVW change vs before administration (30 min after administration): (−0.11 ± 0.27) kg · m | TPR (30 min after administration): 5045 ± 2043 dyn · s/cm^5 | TPR change vs before administration (30 min after administration): (−105 ± 498) dyn · s/cm^5 | dp/dt (30 min after administration): 1170 ± 425 mmHg/s | dp/dt change vs before administration (30 min after administration): (20 ± 157) mmHg/s | −dp/dt (30 min after administration): −863 ± 258 mmHg/s | −dp/dt change vs before administration (30 min after administration): (25 ± 79) mmHg/s | CF (45 min after administration): 51.6 ± 17.1 ml/min/100 g | CF change vs before administration (45 min after administration): (−6.1 ± 8.1) ml/min/100 g | CI (45 min after administration): 2.02 ± 0.45 L/min/m^2 | CI change vs before administration (45 min after administration): (−0.06 ± 0.43) L/min/m^2 | CO (45 min after administration): 1.16 ± 0.22 L/min | CO change vs before administration (45 min after administration): (−0.04 ± 0.25) L/min | CR (45 min after administration): 1.42 ± 0.39 mmHg/ml/min/100 g | CR change vs before administration (45 min after administration): (0.07 ± 0.20) mmHg/ml/min/100 g | LVEDP (45 min after administration): 1.3 ± 2.2 mmHg | LVEDP change vs before administration (45 min after administration): (−0.5 ± 0.44) mmHg | LVP (45 min after administration): 101 ± 19 mmHg | LVP change vs before administration (45 min after administration): (−3.6 ± 4.6) mmHg | LVW (45 min after administration): 1.06 ± 0.31 kg · m | LVW change vs before administration (45 min after administration): (−0.06 ± 0.32) kg · m | TPR (45 min after administration): 4951 ± 1731 dyn · s/cm^5 | TPR change vs before administration (45 min after administration): (−199 ± 925) dyn · s/cm^5 | dp/dt (45 min after administration): 1164 ± 356 mmHg/s | dp/dt change vs before administration (45 min after administration): (14 ± 86) mmHg/s | −dp/dt (45 min after administration): −854 ± 259 mmHg/s | −dp/dt change vs before administration (45 min after administration): (34 ± 80) mmHg/s | CF (60 min after administration): 51.8 ± 15.0 ml/min/100 g | CF change vs before administration (60 min after administration): (−5.9 ± 9.9) ml/min/100 g | CI (60 min after administration): 1.92 ± 0.42 L/min/m^2 | CI change vs before administration (60 min after administration): (−0.16 ± 0.37) L/min/m^2 | CO (60 min after administration): 1.11 ± 0.21 L/min | CO change vs before administration (60 min after administration): (−0.10 ± 0.23) L/min | CR (60 min after administration): 1.38 ± 0.36 mmHg/ml/min/100 g | CR change vs before administration (60 min after administration): (0.03 ± 0.16) mmHg/ml/min/100 g | LVEDP (60 min after administration): 1.3 ± 2.1 mmHg | LVEDP change vs before administration (60 min after administration): (−0.46 ± 0.41) mmHg | LVP (60 min after administration): 101 ± 19 mmHg | LVP change vs before administration (60 min after administration): (−4.1 ± 4.9) mmHg | LVW (60 min after administration): 1.00 ± 0.34 kg · m | LVW change vs before administration (60 min after administration): (−0.12 ± 0.33) kg · m | TPR (60 min after administration): 5112 ± 1599 dyn · s/cm^5 | TPR change vs before administration (60 min after administration): (−38 ± 811) dyn · s/cm^5 | dp/dt (60 min after administration): 1126 ± 375 mmHg/s | dp/dt change vs before administration (60 min after administration): (−24 ± 57) mmHg/s | −dp/dt (60 min after administration): −841 ± 249 mmHg/s | −dp/dt change vs before administration (60 min after administration): (47 ± 92) mmHg/s | CF (90 min after administration): 53.7 ± 14.3 ml/min/100 g | CF change vs before administration (90 min after administration): (−4.0 ± 10.4) ml/min/100 g | CI (90 min after administration): 1.83 ± 0.36 L/min/m^2 | CI change vs before administration (90 min after administration): (−0.25 ± 0.39) L/min/m^2 | CO (90 min after administration): 1.06 ± 0.20 L/min
